The source of these data is patent US20030044776A1, “COMPOSITIONS AND METHODS FOR IDENTIFYING AGENTS THAT ALTER MITOCHONDRIAL PERMEABILITY TRANSITION PORES” (priority 1998, published 2003).

Common to all, as to assay type: cell-based, human
Experiment [1] relates to SH-SY5Y neuroblastoma cells. The experiment in a line: Apoptosis morphology (membrane blebbing) by light microscopy after ionomycin induced MPT. The settings on record: four hours. The procedure: Control SH-SY5Y cells, and control (normal) and AD cybrids produced from SH-SY5Y cells were as described above, and were induced to undergo MPT as described in Example 1. Some cultured cells were pretreated with 1-phenylbiguanide (I) as described in Example 8. Briefly, SH-SY5Y neuroblastoma cells (1×10^5 cells) were rinsed with one volume 1×PBS, and then treated with 10 μM ionomycin (Calbiochem, San Diego, Calif.) in DMEM supplemented with 10% fetal calf serum (FCS) (Gibco, Life Technologies, Grand Island, N.Y.) for 10 minutes, followed by two washes with DMEM (10% FCS). […]
The results using parental SH-SY5Y cells are illustrated in FIG. 10.

Experiment [2] has as its system SH-SY5Y cybrid cells (control and AD). The experiment in a line: Mitochondrial permeability transition (MPT) assay using DASPMI fluorescence loss rate after ionomycin induction. The method, then:
The fluorescent mitochondria-selective dye 2-,4-dimethylaminostyryl-N-methylpyridinium (DASPMI, Molecular Probes, Inc., Eugene, Oreg.) is dissolved in Hank's balanced salt solution (HBSS; Life Technologies, Rockville, Md.) at 1 mM and diluted to 25 μM in warm HBSS. […]
Fluorescence of each microculture in the 96-well plate is quantified immediately using a Molecular Devices fmax fluorimetric plate reader (Molecular Devices Corp., Sunnyvale, Calif.; excitation wavelength=485 nm; emission wavelength=590 nm) and zero-time (t0) fluorescence is recorded. […] Fluorescence decay of DASPMI-loaded, ionomycin induced cells is monitored as a function of time from 0-500 seconds following addition of ionomycin. The maximum negative slope (V-max) is calculated from a subset of the data using analysis software provided by the fluorimetric plate reader manufacturer. In addition, the initial and final signal intensities are determined and the effects of candidate agents that may affect MPT on the rate of signal decay are quantified.
The method described in Example 1 was employed to monitor MPT induced by the calcium ionophore ionomycin and inhibition thereof by cyclosporin. […] Fluorescence detection and monitoring of fluorescence decay as a rate loss function were as described in Example 1. […]

Experiment [3] has as its system caspase-3 activity in AD cybrids or MixCon cybrids. The experiment can be described thus: Caspase-3 activation (DEVD-AMC cleavage) following ionomycin induced MPT. The settings on record: FIG. 11. The procedure: In 96-well microculture plates, cultured human cybrid neuroblastoma SH-SY5Y cells constructed using mitochondria from an individual known to have AD, or from a normal control subject, were cultured in HBSS followed by the addition of atractyloside (as described in Example 5) or ionomycin (as described in Example 1). Control cultures, to which neither atractyloside nor ionomycin were added, were prepared in parallel. Membrane potential was monitored from about 15 minutes (which was, in most cases, sufficient for purposes of the assay) to about 45 to 60 minutes, wherein “about” indicates ±10%.
Caspase-3 activity was assessed by diluting the fluorogenic peptide substrate acetyl-Asp-Glu-Val-Asp (SEQ ID NO:2) conjugated to AMC (7-amino-4-methylcoumarin; the synthetic peptide is referred to as DEVD-AMC; CalBiochem-Novabiochem Corp., San Diego, Calif.; see Walker et al., 1994 Cell 78:343, and Thornberry et al., 1992 Nature 356:768) from a DMSO stock solution into culture media to a final concentration of 20 μM for uptake by cells. Substrate cleavage liberating the AMC fluorophore was measured continuously using a Cytofluor fluorimetric plate reader (model #2350, Millipore Corp., Bedford, Mass.; excitation wavelength=435 nm; emission wavelength=460 nm). Data are presented as ΔRFU (relative fluorescence units). […]

In the case of `N=C(N)NC(=N)Nc1ccccc1` [1-phenylbiguanide], the “apoptosis morphology, % of cells” value in experiment [1] (parental SH-SY5Y cells pretreated with (I), then 10 μM ionomycin, FIG. 10C) is 10-15%. Further, the “rate of loss of mitochondrial membrane potential (DASPMI loss rate)” value in experiment [2] (2 mM 1-phenylbiguanide for 20 min prior to MPT induction with 1 μM ionomycin, two AD and one control cybrid cell lines, p<0.001, FIG. 9) was “decreased the rate of loss of mitochondrial membrane potential”. The “induction of caspase-3 activity after ionomycin induced MPT” value in experiment [3] (pretreated with (I) as in Example 8 (2 mM, 20 min), MPT induced by 25 μM ionomycin) is “inhibited”.

Regarding `C[C@H](CCC(=O)O)C[C@H](C)C[C@H](C)C(=O)/C=C(\O)[C@H](C)C[C@H](C)C/C=C/[C@@H](C)[C@@H](O)[C@@H](C)[C@@H](O)C[C@@H]1CC[C@@](C)([C@H]2CC[C@@](C)([C@@H](C)O)O2)O1` [ionomycin], the “cells exhibiting membrane blebbing” value in experiment [1] (parental SH-SY5Y cells, 10 μM ionomycin, untreated cells <5%, FIG. 10B) was “approximately 80%”. Also, the “caspase-3 activity induced by MPT induction” value in experiment [3] (25 μM ionomycin) is “induces significant caspase-3 activity”.

Take `N.N.N.N.N.N.N.N.N.N.N.N.N.N.[Cl-].[Cl-].[Cl-].[Cl-].[Cl-].[Cl-].[O-2].[O-2].[Ru+3].[Ru+3].[Ru+4]` [ruthenium red]: in experiment [2] (10 nM ruthenium red for 10 minutes prior to MPT induction with ionomycin (5 μM), control and AD cybrid cell lines, FIG. 3), the “DASPMI fluorescence loss rate” value is “significantly greater in cybrid cells that have not been treated with ruthenium red”.
